We go through 3 compounds from patent publication US20240228647A1, “OFATUMUMAB FOR TREATING MULTIPLE SCLEROSIS IN ASIAN PATIENTS” (Novartis AG, priority 2021, published 2024).

The test system of one series is patients with RMS. In kind it is in vivo, human. The note with it: human, in vivo. The procedure:
Ofatumumab was investigated in 1882 patients with RMS from two identical Phase III randomized, double-blind, double-dummy, active-comparator controlled, parallel-group, multicenter studies of identical design (Study I and Study II). Patients were randomized to receive either ofatumumab, OMB (20 mg s.c injections every 4 weeks, after an initial loading regimen of 3 injections on Day 1, 7, and 14), or teriflunomide, TER (14 mg p.o. once a day) as active comparator. For brevity, the teriflunomide data are not shown hereinafter.
The maximum treatment duration for an individual patient was 30 study months (approximately 2.5 years). The two studies included a total of 71 patients of Asian race (36 patients in ofatumumab and 35 patients in teriflunomide treatment groups). This Example also includes the Asian patients data from oncology studies (Study A and Study B), as supportive data, where required.
For the safety analyses of this report, non-serious treatment emergent adverse events (TEAEs) up to and including safety cut-off (i.e. 100 days after last study drug administration) and serious TEAEs regardless of the safety cutoff were considered (if reported prior to the data cut-off of Studies I and II). Common terminology criteria for adverse events (CTCAE) grading was used to record the severity of each AE. The latest version of CTCAE available at the time of TEAE reporting was used. […] The three most frequently reported AEs by SOC were ‘General disorders and administration site conditions’ ‘Infections and infestations’ and ‘Injury, poisoning and procedural complications’ in the Asian and ROW subgroups by race (Table 7). […] In the Asian subgroup, 1 patient experienced SAEs of urinary tract infections, urosepsis and testicular infarction in the ofatumumab group and 1 patient reported an SAE of nephrolithiasis in the teriflunomide group (Table 8). Due to the small number of Asian patients by race and region, results should be interpreted with caution.
AEs of special interest were summarized by risk name, PT and treatment. Furthermore, the incidence of any AE that fulfilled the search terms as defined in eCRS were summarized by risk name, level, and maximum CTCAE grade. In this section, AESIs are first described for subgroups by race and then by region. […] The definitions of AEs of special interest correspond to the identified or potential risks for ofatumumab and its class of drug as well as those for the comparator (teriflunomide). AESIs, based on the safety profiles of ofatumumab, comparator, and other anti-CD20 mABs are: • Injection-related reactions including injection-systemic reaction and injection-site • reactions • Infections, including opportunistic infections, HBV infection reactivation and PML • Malignant and premalignant disorders • Hepatic Safety • Neutropenia

Another series concerns serum Ig levels. To be noted: cited from earlier work.
For the next series, the system named is serum IgG and IgM levels. To be noted: cited from earlier work.

For `C/C(O)=C(\C#N)C(=O)Nc1ccc(C(F)(F)F)cc1` [teriflunomide], in the series on patients with RMS, the “AE by PT: alopecia, %” value worked out at 15.3%; the “AE by PT: alopecia, patients” value turned out to be 138; the “AE by PT: nasopharyngitis, %” value was determined as 17.2%; the “AE by PT: nasopharyngitis, patients” value was determined as 155. Also, in the series with patients with RMS, the “AE by PT: pyrexia, %” value is listed as 14.3%; the “AE by PT: pyrexia, patients” value was 5; the “AE by PT: upper respiratory tract infection, %” value worked out at 5.7%; the “AE by PT: upper respiratory tract infection, patients” value stood at 2. In the series with patients with RMS, the “Patients who experienced at least 1 AE, %” value is on record as 84.2%; the “SAE by PT: Appendicitis, %” value stood at 0.2%; the “SAE by PT: Appendicitis, patients” value came out at 2; the “Serious TEAE: Infections and infestations, %” value was determined as 1.9%.
ocrelizumab: the “Reduction of IgG levels” value in the series with serum Ig levels (after two years (96 weeks), FIG. 6) is “approx. 5%”. Besides, in the series on serum Ig levels (per year, over 5.5 years), the “Reduction in serum Ig levels, approximate mean rate per year” value is 3-4%.
With rituximab [RTX], the “Decrease of IgM levels in serum per year” value in the series with serum IgG and IgM levels was 5.0%.
